Test results: patent US20240124412A1, “IKAROS ZINC FINGER FAMILY DEGRADERS AND USES THEREOF” (Gilead Sciences, Inc., priority 2021, published 2024)

Tests used:
IKZF2 = biological target: T1, IKZF2 (Homo sapiens, UniProt Q96SW2+Q9UKS7); test: HiBiT protein tagging assay, in vitro IKZF2 degradation (HEK293); type: cell-based; settings: HEK293, 18-24 hr incubation, normalized to DMSO control; for Dmax: HEK293, HiBiT assay, read-out: IKZF2 Dmax (maximum degradation at the highest concentration tested); for DC50: HiBiT assay, read-out: IKZF2 EC50
T1 construct: expressed in transfected cells
Description: (§1) In vitro degradation of IKZF1 and IKZF2 was measured using HiBiT protein tagging and detection technology (Promega).
(§2) HiBiT technology (Promega) was used to develop the quantitative assays to measure the cellular IKZFs level by tagging an 11 amino acid HiBit peptides VSGWRLFKKIS (SEQ ID NO:1) to the protein of interest. Reporter plasmids were generated by fusing a linker sequence (GSSGGSSG; SEQ ID NO:2) followed by the HiBiT tag at the C terminus of IKZF1 and IKZF2. The fusion fragments were subsequently cloned into pcDNA5 pcDNA™5/FRT/TO plasmids (Thermo Fisher, cat #V652020) downstream of the Tetracycline operator. The resulting plasmids were co-transfected with pOG44 Flp-Recombinase Expression Vector (Thermo Fisher, cat #V600520) into Flp-In™ T-REx HEK293 line (Thermo Fisher, cat #R78077) and a stable cell pool was selected by adding 100 μg/ml of Hygromycin (Thermo Fisher, cat #10687010). The reporter cell enabled Tet-On inducible reporter expression from a single copy of the integrated gene.
(§3) On Day 1, Cells were grown to ˜80% confluency in TC medium (DMEM Glutamax (Gibco10569), 10% Tet free FBS (Takara 631106), and PenStrep Glutamin (Gibco 10378)) in tissue culture flasks. Doxycycline was then added to a final concentration of 1 μg/ml to induce reporter expression at 37° C. overnight.
(§4) On Day 2, 125 nL of serially-diluted solution of testing compounds were dispensed into 384-well white solid assay plates via ECHO acoustic liquid handler. Cells were lifted by 0.25% Trypsin (Gibco 25200) then pelleted by centrifugation (Beckman Avanti J-E) at 500×g for 5 min. Cell pellets were resuspended in TC medium at the concentration of 3e5/mL and 25 μL of cell suspension were added into each well of compound-spotted plates. The plates were returned to a 37° C. incubator overnight (18-24 hr).
(§5) On Day 3, assay plates were removed from the TC incubator and 25 μL of Nano-Glo lytic detection system (Promega, cat #N3030) was added to each well. Plates were incubated at r.t. for 3 min with shaking, and luminescence was read using an Envision reader (Perkin Elmer).
(§6) All raw data was normalized to DMSO control (final concentration: 0.5%) wells as POC and plotted out for EC50 and Dmax (Maximum degradation at the highest concentration tested in the assay).

IKZF1 = biological target: T2, IKZF1 (Homo sapiens, UniProt Q13422+Q96SW2); test: HiBiT protein tagging assay, in vitro IKZF1 degradation (HEK293); type: cell-based; settings: HEK293, 18-24 hr incubation, normalized to DMSO control; for DC50: read-out: IKZF1 EC50; for Dmax: read-out: IKZF1 Dmax (maximum degradation at the highest concentration tested)
T2 construct: expressed in transfected cells
Description: as §1, §2, §3, §4, §5, §6

T2 sequence (Q13422 whole entry): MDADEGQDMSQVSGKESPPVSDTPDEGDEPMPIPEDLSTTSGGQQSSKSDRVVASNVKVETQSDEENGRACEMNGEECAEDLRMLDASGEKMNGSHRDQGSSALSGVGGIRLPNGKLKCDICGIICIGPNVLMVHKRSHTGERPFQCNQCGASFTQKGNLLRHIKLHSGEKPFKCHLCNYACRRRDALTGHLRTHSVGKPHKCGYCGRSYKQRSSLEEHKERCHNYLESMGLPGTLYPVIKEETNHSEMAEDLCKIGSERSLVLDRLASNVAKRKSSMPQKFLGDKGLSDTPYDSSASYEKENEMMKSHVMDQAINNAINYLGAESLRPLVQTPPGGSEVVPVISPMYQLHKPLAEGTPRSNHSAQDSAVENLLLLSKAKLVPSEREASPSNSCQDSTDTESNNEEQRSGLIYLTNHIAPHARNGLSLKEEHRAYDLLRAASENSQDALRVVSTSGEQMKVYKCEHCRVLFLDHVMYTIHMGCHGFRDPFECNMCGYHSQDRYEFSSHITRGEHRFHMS
T2 sequence (Q96SW2 whole entry): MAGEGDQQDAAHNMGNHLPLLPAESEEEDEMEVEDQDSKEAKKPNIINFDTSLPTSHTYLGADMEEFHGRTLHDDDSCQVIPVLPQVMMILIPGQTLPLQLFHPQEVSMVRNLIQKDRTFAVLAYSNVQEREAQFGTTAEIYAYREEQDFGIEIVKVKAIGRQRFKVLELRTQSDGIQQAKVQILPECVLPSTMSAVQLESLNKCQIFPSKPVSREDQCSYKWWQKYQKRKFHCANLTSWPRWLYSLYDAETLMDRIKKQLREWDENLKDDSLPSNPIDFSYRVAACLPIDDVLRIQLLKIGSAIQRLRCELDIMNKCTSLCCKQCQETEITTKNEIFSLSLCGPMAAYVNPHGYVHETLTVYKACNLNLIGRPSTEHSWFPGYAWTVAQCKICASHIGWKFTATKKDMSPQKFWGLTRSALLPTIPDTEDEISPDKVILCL
T2 sequence (Q16531 whole entry partner): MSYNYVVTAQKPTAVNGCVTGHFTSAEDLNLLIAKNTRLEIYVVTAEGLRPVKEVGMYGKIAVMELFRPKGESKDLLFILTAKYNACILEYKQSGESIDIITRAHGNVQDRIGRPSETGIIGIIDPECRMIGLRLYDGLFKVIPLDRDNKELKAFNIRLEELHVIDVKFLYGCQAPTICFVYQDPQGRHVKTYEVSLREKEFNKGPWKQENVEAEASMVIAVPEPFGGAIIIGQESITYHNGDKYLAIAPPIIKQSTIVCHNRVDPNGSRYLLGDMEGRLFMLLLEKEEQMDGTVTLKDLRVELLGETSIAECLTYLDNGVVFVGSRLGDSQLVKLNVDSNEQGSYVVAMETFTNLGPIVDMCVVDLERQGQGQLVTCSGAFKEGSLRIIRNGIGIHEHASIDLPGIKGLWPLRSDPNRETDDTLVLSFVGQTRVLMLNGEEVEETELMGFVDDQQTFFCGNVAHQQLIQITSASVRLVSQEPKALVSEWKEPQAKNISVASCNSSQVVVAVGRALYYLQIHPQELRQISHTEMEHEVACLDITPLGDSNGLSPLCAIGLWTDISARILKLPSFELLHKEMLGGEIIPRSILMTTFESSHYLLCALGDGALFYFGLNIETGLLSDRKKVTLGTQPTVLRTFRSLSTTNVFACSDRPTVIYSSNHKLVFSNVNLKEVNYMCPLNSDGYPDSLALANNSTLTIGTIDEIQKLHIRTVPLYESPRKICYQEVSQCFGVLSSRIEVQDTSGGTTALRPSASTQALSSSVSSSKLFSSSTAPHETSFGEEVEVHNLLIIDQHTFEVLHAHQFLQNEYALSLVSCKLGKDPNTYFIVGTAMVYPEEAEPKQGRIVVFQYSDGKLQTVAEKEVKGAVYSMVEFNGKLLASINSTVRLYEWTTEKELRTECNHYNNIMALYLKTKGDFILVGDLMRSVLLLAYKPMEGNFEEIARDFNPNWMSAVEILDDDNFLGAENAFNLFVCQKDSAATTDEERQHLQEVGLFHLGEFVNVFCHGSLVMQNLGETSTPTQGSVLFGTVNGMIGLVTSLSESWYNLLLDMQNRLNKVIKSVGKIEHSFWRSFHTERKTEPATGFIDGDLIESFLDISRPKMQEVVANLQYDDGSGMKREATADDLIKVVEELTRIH
T1 sequence (Q9UKS7 1-500 isoform Q9UKS7-2): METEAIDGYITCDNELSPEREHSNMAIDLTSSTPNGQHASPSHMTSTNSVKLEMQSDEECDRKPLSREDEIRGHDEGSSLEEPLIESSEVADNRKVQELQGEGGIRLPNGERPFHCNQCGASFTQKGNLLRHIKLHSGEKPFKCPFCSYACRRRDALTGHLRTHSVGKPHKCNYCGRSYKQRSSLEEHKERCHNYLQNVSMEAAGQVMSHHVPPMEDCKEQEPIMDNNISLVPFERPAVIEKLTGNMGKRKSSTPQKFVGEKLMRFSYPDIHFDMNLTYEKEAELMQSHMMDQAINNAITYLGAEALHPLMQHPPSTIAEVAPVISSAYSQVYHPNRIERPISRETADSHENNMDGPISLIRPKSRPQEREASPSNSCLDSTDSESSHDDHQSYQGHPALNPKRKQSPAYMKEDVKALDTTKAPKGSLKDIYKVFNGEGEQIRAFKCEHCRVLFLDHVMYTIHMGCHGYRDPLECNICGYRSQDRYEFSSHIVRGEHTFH
T1 sequence (Q96SW2 whole entry): as the sequence (Q96SW2 whole entry) above
T1 sequence (Q16531 whole entry partner): as the sequence (Q16531 whole entry partner) above

Compound	Dmax (IKZF2) [%]	DC50 (IKZF2) [nM]	DC50 (IKZF1) [nM]	Dmax (IKZF1) [%]
O=C1CCC(N2Cc3cc(CN[C@H]4CC5CCC4CC5)ccc3C2=O)C(=O)N1 (stereo partly drawn) [Example 95, 3-(5-((((S)-bicyclo[2.2.2]octan-2-yl)amino)methyl)-1-oxoisoindolin-2-yl)piperidine-2,6-dione]	49	361	> 10000	
O=C1CCC(N2Cc3cc(CN[C@@H]4CCCC[C@@H]4CO)ccc3C2=O)C(=O)N1 (stereo partly drawn) [Example 34, 3-(5-((((1R,2S)-2-(hydroxymethyl)cyclohexyl)amino)methyl)-1-oxoisoindolin-2-yl)piperidine-2,6-dione]	70	657	384	20
CC(C)NCc1ccc2c(c1)CN(C1CCC(=O)NC1=O)C2=O (centres unmarked) [Example 9, 3-(5-((isopropylamino)methyl)-1-oxoisoindolin-2-yl)piperidine-2,6-dione]	48	738	351	51
O=C1CCC(N2Cc3cc(CNC4CCN(C(=O)NCc5ccccc5)CC4)ccc3C2=O)C(=O)N1 (centres unmarked) [Example 4, N-benzyl-4-(((2-(2,6-dioxopiperidin-3-yl)-1-oxoisoindolin-5-yl)methyl)amino)piperidine-1-carboxamide]	95	1700	68	95
O=C1CCC(N2Cc3cc(CN[C@@H]4CCCN(C(=O)c5ccccc5)C4)ccc3C2=O)C(=O)N1 (stereo partly drawn) [Example 24, 3-(5-((((R)-1-benzoylpiperidin-3-yl)amino)methyl)-1-oxoisoindolin-2-yl)piperidine-2,6-dione]	62	2000	871	36
O=C1CCC(N2Cc3cc(CN[C@H]4CCC[C@@H]4NCc4ccccc4)ccc3C2=O)C(=O)N1 (stereo partly drawn) [Example 157, 3-(5-((((1S,2S)-2-(benzylamino)cyclopentyl)amino)methyl)-1-oxoisoindolin-2-yl)piperidine-2,6-dione]	43	443	131	66
O=C1CCC(N2Cc3cc(CN[C@@H]4CCCC[C@H]4O)ccc3C2=O)C(=O)N1 (stereo partly drawn) [Example 40, 3-(5-((((1R,2R)-2-hydroxycyclohexyl)amino)methyl)-1-oxoisoindolin-2-yl)piperidine-2,6-dione]	38	1200	> 10000	
O=C1CCC(N2Cc3cc(CNC4CCC(F)(F)CC4)ccc3C2=O)C(=O)N1 (centres unmarked) [Example 7, 3-(5-(((4,4-difluorocyclohexyl)amino)methyl)-1-oxoisoindolin-2-yl)piperidine-2,6-dione]	80	104	53	70
O=C1CCC(N2Cc3cc(CNC4CCOCC4)ccc3C2=O)C(=O)N1 (centres unmarked) [Example 6, 3-(1-oxo-5-(((tetrahydro-2H-pyran-4-yl)amino)methyl)isoindolin-2-yl)piperidine-2,6-dione]	78	181	148	92
O=C1CCC(N2Cc3cc(CNC4CCN(Cc5ccccc5)CC4)ccc3C2=O)C(=O)N1 (centres unmarked) [Example 1, 3-(5-(((1-benzylpiperidin-4-yl)amino)methyl)-1-oxoisoindolin-2-yl)piperidine-2,6-dione]	67	342	255	51
O=C1CCC(N2Cc3cc(CNC4CCCC(C(F)(F)F)C4)ccc3C2=O)C(=O)N1 (stereo not drawn) [Example 128, 3-(1-oxo-5-((((1,3-trans)-3-(trifluoromethyl)cyclohexyl)amino)methyl)isoindolin-2-yl)piperidine-2,6-dione]	64	181	104	42
O=C1CCC(N2Cc3cc(CNC4CCCC(Cn5cccn5)C4)ccc3C2=O)C(=O)N1 (centres unmarked) [Example 121]	92	336	169	93
O=C1CCC(N2Cc3cc(CN[C@H]4CCOc5ccccc54)ccc3C2=O)C(=O)N1 (stereo partly drawn) [Example 17, 3-(5-((((S)-chroman-4-yl)amino)methyl)-1-oxoisoindolin-2-yl)piperidine-2,6-dione]	48	230	31	65
O=C1CCC(N2Cc3cc(CN[C@@H]4CCCN(CCc5ccccc5)C4)ccc3C2=O)C(=O)N1 (stereo partly drawn) [Example 29, 3-(1-oxo-5-((((R)-1-phenethylpiperidin-3-yl)amino)methyl)isoindolin-2-yl)piperidine-2,6-dione]	20	665	102	58
O=C1CCC(N2Cc3cc(CN[C@@H]4CCCN(Cc5cccnc5)C4)ccc3C2=O)C(=O)N1 (stereo partly drawn) [Example 124, 3-(1-oxo-5-((((R)-1-(pyridin-3-ylmethyl)piperidin-3-yl)amino)methyl)isoindolin-2-yl)piperidine-2,6-dione]	96	318	115	96

Compounds with a lower DC50 (IKZF2), results first:

Dmax (IKZF2) [%]	DC50 (IKZF2) [nM]	DC50 (IKZF1) [nM]	Dmax (IKZF1) [%]	Compound
95	49	96	27	CC1(NCc2ccc3c(c2)CN(C2CCC(=O)NC2=O)C3=O)CCCCC1 (centres unmarked) [Example 113]
91	23	3	97	CC1(c2ccccc2)CCC(NCc2ccc3c(c2)CN(C2CCC(=O)NC2=O)C3=O)CC1 (centres unmarked) [Example 103, 3-(5-(((4-methyl-4-phenylcyclohexyl)amino)methyl)-1-oxoisoindolin-2-yl)piperidine-2,6-dione]
82	48	52	53	O=C1CCC(N2Cc3cc(CNC4CC5CC(C5)C4)ccc3C2=O)C(=O)N1 (centres unmarked) [Example 74]
85	41	16	61	O=C1CCC(N2Cc3cc(CN[C@@H]4CCC[C@H](Oc5ccccc5)C4)ccc3C2=O)C(=O)N1 (some centres unmarked) [Example 92]
92	43	74	75	O=C1CCC(N2Cc3cc(CNC4CC5CCC(C5)C4)ccc3C2=O)C(=O)N1 (centres unmarked) [Example 105]
81	68	23	82	O=C1CCC(N2Cc3cc(CN[C@H]4CCC[C@@H](Cc5ccccc5)C4)ccc3C2=O)C(=O)N1 (some centres unmarked) [Example 116]
96	10	3	95	O=C1CCC(N2Cc3cc(CN[C@H]4CCC[C@@H](Cc5ccccc5)C4)ccc3C2=O)C(=O)N1 (relative stereo) [Example 12, 3-(5-((((1,3-cis)-3-benzylcyclohexyl)amino)methyl)-1-oxoisoindolin-2-yl)piperidine-2,6-dione]
90	67	29	86	O=C1CCC(N2Cc3cc(CN[C@H]4CC[C@](O)(c5ccccc5)CC4)ccc3C2=O)C(=O)N1 (some centres unmarked) [Example 65]
96	48	22	97	O=C1CCC(N2Cc3cc(CNC4CCCC(Cn5ncc6ccccc65)C4)ccc3C2=O)C(=O)N1 (centres unmarked) [Example 122]
93	46	90	85	COC[C@@H]1CCCC[C@@H]1NCc1ccc2c(c1)CN(C1CCC(=O)NC1=O)C2=O (stereo partly drawn) [Example 158, 3-(5-((((1S,2R)-2-(methoxymethyl)cyclohexyl)amino)methyl)-1-oxoisoindolin-2-yl)piperidine-2,6-dione]
